Laboratory results as given in patent US20210015850A1, “COMPOSITION FOR IMPROVING INTESTINAL BARRIER FUNCTION” (SUNTORY HOLDINGS LIMITED, priority 2017, published 2021).
Where two headings read alike, the source gives them in different places.

Tested on: Caco-2 cells
Assay: Intestinal barrier function improvement: suppression of cytokine-induced TEER reduction in Caco-2 monolayer
Format: cell-based, human
Conditions: for inhibition at 10 µM: Homo sapiens, read-out: TEER reduction suppression ratio (%); for Relative value of TEER reduction suppression ratio of gallate type compound (non-gallate type compound taken as 1): 10 μM, gallate vs non-gallate in the same evaluation
Procedure: Caco-2 cells were cultured for three weeks at 37° C. in Transwell (manufactured by Millicell Corporation) using DMEM (Dulbecco's modified Eagle's medium). A medium was removed from a plate of cultured Caco-2 cells, and the well was washed 3 times with serum-free DMEM. The well was filled with the medium. Then, the transepithelial electrical resistance (TEER) of Caco-2 monolayer cells was measured by Millicell-ERS (manufactured by Millipore Corporation). Cells (TEER≥1000 Ω·cm^2) determined that a sufficient tight junction was formed were selected, and used for the next screening. Then, to test solutions (media) on both apical and basolateral membrane sides, a sample, TNFα (40 ng/mL), IL-1β (20 ng/mL), and IFNγ (10 ng/mL) were added, followed by cultivating for 48 hours. The sample was dissolved in dimethyl sulfoxide (DMSO), and the solution was then added to the test solutions. In this case, a well to which inflammatory cytokine (TNFα, IL-1β, and IFNγ) and the sample were not added was provided as normal. A well to which inflammatory cytokine was added and the sample was not added was provided as control. After the cultivation, TEER was measured again, to evaluate whether the sample suppressed the reduction (decrease) of TEER due to the inflammatory cytokine.
The TEER reduction suppression ratio (%) due to the sample was determined according to the following formula from the TEER values of the well to which the sample was added, normal, and control.
TEER reduction suppression ratio (%)−100×((TEER of well to which sample is added)−(TEER of control))/((TEER of normal)−(TEER of control))
In this evaluation system, as the TEER reduction suppression ratio (%) is higher, an intestinal barrier function improvement effect is higher.
The intestinal barrier function improvement action was evaluated by the same method (the method for evaluating intestinal barrier function improvement action described in Example 4) as that in Example 4. In Example 5, the sample was added into the test solution so that a sample concentration was set to 10 μmol/L. The TEER reduction suppression ratio (%) of the sample was obtained according to the formula from the TEER values of a well to which the sample was added, normal, and control in the same manner as in Example 4.

[1] = Caco-2, 48 h, sample 10 μM (10 μmol/L), Example 5, Table 4
[2] = Caco-2, sample 10 μM, TNFα 40 ng/mL, IL-1β 20 ng/mL, IFNγ 10 ng/mL, 48 hours, Table 2
[3] = sample 10 μM (10 μmol/L), Example 5, Table 4

## O=C(OC[C@H]1O[C@@H](OC(=O)c2cc(O)c(O)c(O)c2)[C@H](OC(=O)c2cc(O)c(O)c(O)c2)[C@@H](OC(=O)c2cc(O)c(O)c(O)c2)[C@@H]1OC(=O)c1cc(O)c(O)c(O)c1)c1cc(O)c(O)c(O)c1 [1,2,3,4,6-penta-O-galloyl-β-D-glucose]
[1]
  inhibition at 10 µM: 64%

## O=C(OC[C@H]1O[C@@H](OC(=O)c2cc(O)c(O)c(O)c2)[C@H](OC(=O)c2cc(O)c(O)c(O)c2)[C@@H](OC(=O)c2cc(O)c(O)c(O)c2)[C@@H]1O)c1cc(O)c(O)c(O)c1 [1,2,3,6-tetra-O-galloyl-β-D-glucose]
[1]
  inhibition at 10 µM: 98%

## O=C(OC[C@H]1O[C@@H](OC(=O)c2cc(O)c(O)c(O)c2)[C@H](OC(=O)c2cc(O)c(O)c(O)c2)[C@@H](O)[C@@H]1OC(=O)c1cc(O)c(O)c(O)c1)c1cc(O)c(O)c(O)c1 [1,2,4,6-tetra-O-galloyl-β-D-glucose]
[1]
  inhibition at 10 µM: 80%

## O=C(OC[C@H]1O[C@@H](OC(=O)c2cc(O)c(O)c(O)c2)[C@H](O)[C@@H](O)[C@@H]1OC(=O)c1cc(O)c(O)c(O)c1)c1cc(O)c(O)c(O)c1 [1,4,6-tri-O-galloyl-β-D-glucose]
[1]
  inhibition at 10 µM: 56%

## O=C(OC[C@H]1O[C@@H](O)[C@H](OC(=O)c2cc(O)c(O)c(O)c2)[C@@H](OC(=O)c2cc(O)c(O)c(O)c2)[C@@H]1OC(=O)c1cc(O)c(O)c(O)c1)c1cc(O)c(O)c(O)c1 [2,3,4,6-tetra-O-galloyl-β-D-glucose]
[1]
  inhibition at 10 µM: 93%

## O=C(O[C@@H]1COC(=O)c2cc(O)c(O)c(O)c2-c2c(cc(O)c(O)c2O)C(=O)O[C@H]1[C@@H]1OC(=O)c2cc(O)c(O)c(O)c2-c2c(O)c(O)c(O)c3c2C(=O)O[C@H]1[C@@H]3O)c1cc(O)c(O)c(O)c1 [Casuarinin]
[1]
  inhibition at 10 µM: 82%

## O=C(O[C@@H]1Cc2c(O)cc(O)cc2O[C@@H]1c1ccc(O)c(O)c1)c1cc(O)c(O)c(O)c1 [Epicatechin gallate]
  Relative value of TEER reduction suppression ratio of gallate type compound (non-gallate type compound taken as 1): 2.5
[2]
  inhibition at 10 µM: 35%

## Oc1cc(O)c2c(c1)O[C@H](c1ccc(O)c(O)c1)[C@H](O)C2 [Epicatechin, reference compound]
[2]
  inhibition at 10 µM: 14%

## O=C(O[C@@H]1Cc2c(O)cc(O)cc2O[C@H]1c1cc(O)c(O)c(O)c1)c1cc(O)c(O)c(O)c1 [Gallocatechin gallate]
  Relative value of TEER reduction suppression ratio of gallate type compound (non-gallate type compound taken as 1): 3.2
[2]
  inhibition at 10 µM: 60%

## Oc1cc(O)c2c(c1)O[C@H](c1cc(O)c(O)c(O)c1)[C@@H](O)C2 [Gallocatechin, reference compound]
[2]
  inhibition at 10 µM: 19%

## O=C1O[C@H]2[C@@H]3OC(=O)c4cc(O)c(O)c(O)c4-c4c(cc(O)c(O)c4O)C(=O)OC[C@H]2O[C@@H](OC(=O)c2cc(O)c(O)c(O)c2)[C@@H]3OC(=O)c2cc(O)c(O)c3c2[C@@H]2C1=CC(=O)[C@](O)(O3)C2(O)O [Geranlin, geraniin]
[1]
  inhibition at 10 µM: 83%

## O=C1OC[C@H]2OC(O)[C@@H]3OC(=O)c4cc(O)c(O)c(O)c4-c4c(cc(O)c(O)c4O)C(=O)O[C@H]3[C@@H]2OC(=O)c2cc(O)c(O)c(O)c2-c2c1cc(O)c(O)c2O (some centres unmarked) [Pedunculagin]
[1]
  inhibition at 10 µM: 72%

## O=C(O)c1cc(O)c(O)c(O)c1Oc1cc2c(c(O)c1O)-c1c(cc(O)c(O)c1O)C(=O)O[C@@H]1C(COC2=O)OC(O)C2OC(=O)c3cc(O)c(O)c(O)c3-c3c(cc(O)c(O)c3O)C(=O)O[C@H]21 (some centres unmarked) [Praecoxin A]
[1]
  inhibition at 10 µM: 74%

## O=C(O[C@H]1COC(=O)c2cc(O)c(O)c(O)c2-c2c(cc(O)c(O)c2O)C(=O)O[C@H]1C1OC(=O)c2cc(O)c(O)c(O)c2-c2c(O)c(O)c(O)c3c2C(=O)O[C@H]1[C@@H]3c1c(O)cc(O)c2c1OC(c1ccc(O)c(O)c1)C(O)C2)c1cc(O)c(O)c(O)c1 (some centres unmarked) [Stenophyllanin A, stenophyllanin A]
[3]
  TEER reduction suppression ratio (%): 96%

## O=C(O[C@H]1[C@@H]2OC(=O)c3cc(O)c(O)c(O)c3-c3c(cc(O)c(O)c3O)C(=O)OC[C@H]2OC(O)[C@@H]1OC(=O)c1cc(O)c(O)c(O)c1)c1cc(O)c(O)c(O)c1 (some centres unmarked) [Tellimagrandin I, tellimagrandin I]
[3]
  TEER reduction suppression ratio (%): 65%

## O=c1c(O)c(-c2ccc(O)c(O)c2)oc2cc(O)cc(O)c12 [quercetin, reference compound]
[1]
  inhibition at 10 µM: 38%

## Catechin [reference compound]
Sample 10 μM, TNFα 40 ng/mL, IL-1β 20 ng/mL, IFNγ 10 ng/mL, 48 hours, Table 2
  TEER reduction suppression ratio (%): 15%

## stenophyllanin B
[3]
  TEER reduction suppression ratio (%): 126%
